According to US8993526B2, “Method for counteracting the perception of sweat malodour by decreasing the function of carboxylic acid-binding olfactory receptors” (ChemCom S.A., priority 2011, dated 2015):

Assays:
Type in all cases: cell-based
Conditions in all cases: tested at 1 mM, 316 μM, 100 μM; hit = luciferase activity >= median + 2 standard deviations
OR51I2 = target: T1, OR51I2 (Homo sapiens, UniProt Q9H344, T134A); experiment: CRE-luciferase reporter assay, OR51I2 in HEK293T-RTP1A1/RTP2 cells
T1 construct: expressed in transfected cells; host or cells: HEK293T-RTP1A1/RTP2
T1 sequence (Q9H344 1-312 T134A): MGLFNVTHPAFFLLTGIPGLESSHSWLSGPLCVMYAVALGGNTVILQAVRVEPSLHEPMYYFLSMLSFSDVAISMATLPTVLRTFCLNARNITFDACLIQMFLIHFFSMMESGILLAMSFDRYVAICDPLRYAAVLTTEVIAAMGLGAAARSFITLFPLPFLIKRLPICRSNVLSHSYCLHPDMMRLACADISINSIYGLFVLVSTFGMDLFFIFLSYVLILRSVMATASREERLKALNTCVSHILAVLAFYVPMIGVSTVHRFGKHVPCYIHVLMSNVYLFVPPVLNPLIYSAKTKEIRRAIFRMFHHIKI
Procedure: (§1) Cells were maintained in minimal essential medium (EMEM, Lonza) containing 10% fetal bovine serum (M10). HEK293T-RTP1A1/RTP2 cells were generated by transfecting HEK293T with an expression vector containing the sequences of the chaperone proteins RTP1A1 and RTP2 and a resistance gene to puromycin, using Lipofectamine 2000. A recombinant cell population was selected by adding 10 μg/ml of puromycin into the culture medium. Monoclonal populations were further obtained by limit dilution procedure. Briefly, a cell suspension was diluted to contain 1 cell per ml and this dilution was dispatched in poly-D-lysine-coated 96 wells plates (200 μl of dilution per well). After 5 days of culture, the presence and number of cell colonies per well was checked under a phase contrast microscopic. After 5 additional days of culture, wells containing a single colony were harvested and each collected population was amplified independently.
(§2) For screening experiments, stock solutions of odorant molecules were diluted in EMEM disposed in 96-well plates. Plates containing the tested molecules (1 molecule/well) at a concentration of 2 mM, at a concentration of 632 μM and at a concentration of 200 μM were prepared.
(§3) For concentration-response analysis, serial dilutions of the tested molecules were prepared from stock solutions in EMEM plated into 96-well plates.
(§4) For the initial deorphanisation screening and dose-response analysis, a Luciferase-based gene reporter assay (Promega, Leiden, The Nederlands) was used as described in Saito et al. (2004). Briefly, cells were platted on poly-D-lysine-coated 96-well plates (BD Bioscience, Erembodegem-Dorp, Belgium) and transfected with a plasmid containing the CRE-luciferase and a plasmid containing the olfactory receptor. Sixteen hours after transfection, the culture medium was replaced by serum-free EMEM containing the tested ligand at a determined concentration. After four hours of incubation at 37° C. degree, cells were lysed and processed for luminescence measurement according to the manufacturer's protocols. Luminescene emission was recorded on a Spectra Max M5 reader (Molecular Devices, Sunnyvale, Calif.). Results were expressed as percentage of the response induced by 10 μM of the adenylate cyclase activator Forskolin.
(§5) Each molecule was tested at 3 different concentrations (1 mM, 316 μM, 100 μM). The different molecules of the tested libraries were disposed at the same concentration into 96 well plates (1 well/molecule) containing cells expressing the receptor of interest. The activity of the tested molecules was measured using the lucifierase activity as explained above. The median luciferase activity induced by the tested molecules and the associated standard deviation were determined. Putatively active molecules (hits) were defined as molecules inducing a luciferase activity higher or equal to the median+2 standard deviations.
(§6) The hits were validated by concentration-response analysis. Semi-logarithmic serial dilutions of hit molecules, from 1 mM to 316 nM, were tested on the responding ORs using the luciferase assay as described above.

OR52B2 = target: T2, OR52B2 (Homo sapiens, UniProt Q96RD2); experiment: CRE-luciferase reporter assay, OR52B2 in HEK293T-RTP1A1/RTP2 cells
T2 construct: expressed in transfected cells; host or cells: HEK293T-RTP1A1/RTP2
T2 sequence (Q96RD2 1-323): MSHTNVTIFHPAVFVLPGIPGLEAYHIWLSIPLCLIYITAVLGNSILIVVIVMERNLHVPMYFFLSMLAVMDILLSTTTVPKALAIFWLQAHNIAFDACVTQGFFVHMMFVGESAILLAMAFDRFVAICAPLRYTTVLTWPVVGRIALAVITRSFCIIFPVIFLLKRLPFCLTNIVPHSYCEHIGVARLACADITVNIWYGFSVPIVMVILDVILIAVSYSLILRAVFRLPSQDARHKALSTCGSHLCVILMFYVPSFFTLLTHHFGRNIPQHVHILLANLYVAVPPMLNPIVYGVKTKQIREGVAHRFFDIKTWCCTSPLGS
Procedure: as §1, §2, §3, §4, §5, §6

OR56A5 = target: T3, OR56A5 (Homo sapiens, UniProt P0C7T3, R311K/V104M); experiment: CRE-luciferase reporter assay, OR56A5 in HEK293T-RTP1A1/RTP2 cells
T3 construct: expressed in transfected cells; host or cells: HEK293T-RTP1A1/RTP2
T3 sequence (P0C7T3 1-313 V104M/R311K): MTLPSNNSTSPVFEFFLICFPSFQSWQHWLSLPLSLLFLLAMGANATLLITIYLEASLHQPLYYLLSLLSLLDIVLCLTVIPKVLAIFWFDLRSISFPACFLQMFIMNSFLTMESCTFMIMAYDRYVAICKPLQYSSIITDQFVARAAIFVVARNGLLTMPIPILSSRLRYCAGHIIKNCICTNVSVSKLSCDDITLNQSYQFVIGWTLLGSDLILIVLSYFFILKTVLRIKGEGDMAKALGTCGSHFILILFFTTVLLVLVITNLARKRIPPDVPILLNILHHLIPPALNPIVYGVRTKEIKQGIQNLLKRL
Procedure: as §1, §2, §3, §4, §5, §6

OR52E1 = target: T4, OR52E1 (Homo sapiens, UniProt Q8NGJ3, F254L/Y278C); experiment: CRE-luciferase reporter assay, OR52E1 in HEK293T-RTP1A1/RTP2 cells
T4 construct: expressed in transfected cells; host or cells: HEK293T-RTP1A1/RTP2
Procedure: as §1, with “independently. For screening experiments, stock solutions of odorant molecules were diluted in EMEM disposed in 96-well plates. Plates containing the tested molecules (1 molecule/well) at a concentration of 2 mM, at a concentration of 632 μM and at a concentration of 200 μM were prepared. For concentration-response analysis, serial dilutions of the tested molecules were prepared from stock solutions in EMEM plated into 96-well plates. […]” for “independently.”

OR52A5 = target: T5, OR52A5 (Homo sapiens, UniProt Q9H2C5); experiment: CRE-luciferase reporter assay, OR52A5 in HEK293T-RTP1A1/RTP2 cells
T5 construct: expressed in transfected cells; host or cells: HEK293T-RTP1A1/RTP2
T5 sequence (Q9H2C5 1-314 limits assumed): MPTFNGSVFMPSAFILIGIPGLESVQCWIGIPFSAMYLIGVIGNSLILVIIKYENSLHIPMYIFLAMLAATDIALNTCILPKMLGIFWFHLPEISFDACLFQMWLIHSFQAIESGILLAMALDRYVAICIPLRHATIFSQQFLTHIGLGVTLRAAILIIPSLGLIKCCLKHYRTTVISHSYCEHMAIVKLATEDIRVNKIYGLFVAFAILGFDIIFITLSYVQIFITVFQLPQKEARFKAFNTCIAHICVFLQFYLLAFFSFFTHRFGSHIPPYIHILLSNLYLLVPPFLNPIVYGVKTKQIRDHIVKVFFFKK
Procedure: as §1, with “After 5 days of culture, the presence and number of cell colonies per well was checked under a phase contrast microscopic. After 5 additional days of culture, wells containing a single colony were harvested and each collected population was amplified independently.” left out
as §4, with “Briefly, cells were platted on poly-D-lysine-coated 96-well plates (BD Bioscience, Erembodegem-Dorp, Belgium) and transfected with a plasmid containing the CRE-luciferase and a plasmid containing the olfactory receptor.” left out, “Forskolin. […]” for “Forskolin.”

OR52E8 = target: T6, OR52E8 (Homo sapiens, UniProt Q6IFG1); experiment: CRE-luciferase reporter assay, OR52E8 in HEK293T-RTP1A1/RTP2 cells
T6 construct: expressed in transfected cells; host or cells: HEK293T-RTP1A1/RTP2
Procedure: as §1, with “After 5 days of culture, the presence and number of cell colonies per well was checked under a phase contrast microscopic. After 5 additional days of culture, wells containing a single colony were harvested and each collected population was amplified independently.” left out
as §4, with “Briefly, cells were platted on poly-D-lysine-coated 96-well plates (BD Bioscience, Erembodegem-Dorp, Belgium) and transfected with a plasmid containing the CRE-luciferase and a plasmid containing the olfactory receptor.” left out, “Forskolin. […]” for “Forskolin.”

OR52L1 = target: T7, OR52L1 (Homo sapiens, UniProt Q8NGH7, R140C/S130L); experiment: CRE-luciferase reporter assay, OR52L1 in HEK293T-RTP1A1/RTP2 cells
T7 construct: expressed in transfected cells; host or cells: HEK293T-RTP1A1/RTP2
T7 sequence (Q8NGH7 1-329 S130L/R140C): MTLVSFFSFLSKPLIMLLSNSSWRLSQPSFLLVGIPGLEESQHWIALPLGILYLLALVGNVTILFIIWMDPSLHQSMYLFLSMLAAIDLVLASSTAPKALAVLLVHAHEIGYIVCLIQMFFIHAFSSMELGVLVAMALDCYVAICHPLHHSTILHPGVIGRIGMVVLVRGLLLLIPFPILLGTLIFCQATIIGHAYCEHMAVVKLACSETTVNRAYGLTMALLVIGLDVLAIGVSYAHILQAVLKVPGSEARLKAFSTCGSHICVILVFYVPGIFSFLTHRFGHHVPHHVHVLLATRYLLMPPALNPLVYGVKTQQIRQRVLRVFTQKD
Procedure: as §1, with “independently. For screening experiments, stock solutions of odorant molecules were diluted in EMEM disposed in 96-well plates. Plates containing the tested molecules (1 molecule/well) at a concentration of 2 mM, at a concentration of 632 μM and at a concentration of 200 μM were prepared. For concentration-response analysis, serial dilutions of the tested molecules were prepared from stock solutions in EMEM plated into 96-well plates. […]” for “independently.”

T4 sequence (Q8NGJ3 whole entry F254L/Y278C): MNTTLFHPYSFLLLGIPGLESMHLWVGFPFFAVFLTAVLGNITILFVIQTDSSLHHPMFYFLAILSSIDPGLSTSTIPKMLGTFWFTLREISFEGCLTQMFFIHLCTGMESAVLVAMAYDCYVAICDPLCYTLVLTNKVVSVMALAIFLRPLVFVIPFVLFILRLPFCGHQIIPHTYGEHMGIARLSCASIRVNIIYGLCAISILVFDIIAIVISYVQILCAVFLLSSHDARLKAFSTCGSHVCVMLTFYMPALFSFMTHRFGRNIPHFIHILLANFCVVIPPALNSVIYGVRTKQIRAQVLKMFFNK
T6 sequence (Q6IFG1 with tags, fused parts or gaps): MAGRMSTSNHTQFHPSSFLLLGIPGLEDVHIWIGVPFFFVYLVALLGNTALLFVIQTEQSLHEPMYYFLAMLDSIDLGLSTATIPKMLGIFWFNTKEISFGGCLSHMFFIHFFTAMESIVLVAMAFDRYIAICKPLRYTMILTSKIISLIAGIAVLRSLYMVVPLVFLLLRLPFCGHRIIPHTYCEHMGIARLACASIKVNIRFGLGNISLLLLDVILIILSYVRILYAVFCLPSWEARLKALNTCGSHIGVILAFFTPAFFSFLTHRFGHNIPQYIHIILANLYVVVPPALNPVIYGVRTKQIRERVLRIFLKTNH

Row | activation of OR51I2 (hit in luciferase assay) (OR51I2) | activation of OR56A5 (hit in luciferase assay) (OR56A5) | Compound | activation of OR52B2 (hit in luciferase assay) (OR52B2) | other results
1 | – | activation | CCCCCCCCCCC(=O)O [undecanoic acid] | activation | –
2 | – | activation | CCCCCCCCCC(=O)O [decanoic acid] | activation | –
3 | – | activation | CCCCCC(C)C(=O)O (stereo not shown) [2-methylheptanoic acid] | – | –
4 | – | activation | CCCCCCC(=O)O [heptanoic acid] | activation | –
5 | activation | – | CCCCC(=O)O [pentanoic acid] | – | activation of OR52L1 (hit in luciferase assay) (OR52L1): activation

The next lines start with the compound.

Row | Compound | activation of OR51I2 (hit in luciferase assay) (OR51I2) | activation of OR56A5 (hit in luciferase assay) (OR56A5) | activation of OR52B2 (hit in luciferase assay) (OR52B2) | other results
6 | CCC/C(C)=C/C(=O)O [(E)-3-methyl-2-hexanoic acid] | activation | – | – | –
7 | CCCCC(C)C(=O)O (stereo not shown) [2-methylhexanoic acid] | activation | – | – | –
8 | O=C(O)c1ccccc1 [benzoic acid] | activation | – | – | –
9 | CCCCCC(=O)O [hexanoic acid] | activation | activation | activation | –
10 | CCCC(=O)O [butanoic acid] | activation | – | – | activation of OR52E1 (hit in luciferase assay) (OR52E1): activation
11 | CCCC(C)CC(=O)O (stereo not shown) [3-methylhexanoic acid] | activation | – | – | –
12 | CCCCC(CC)CCC(=O)O (stereo not shown) [4-ethyloctanoic acid] | – | – | – | activation of OR52A5 (hit in luciferase assay) (OR52A5): activation
13 | CCCC(C)(O)CC(=O)O (stereo not shown) [3-hydroxy-3-methylhexanoic acid] | – | – | – | activation of OR52E8 (hit in luciferase assay) (OR52E8): activation
14 | CC(C)CC(=O)O [isovaleric acid] | activation | – | – | –
15 | CCCCCCCCC(=O)O [nonanoic acid] | – | activation | activation | –
16 | CCCCCCCC(=O)O [octanoic acid] | – | activation | activation | –
